Experimental data from a melting point compilation (Tetko et al.; mined from patent text by program, amines drawn as free bases though some values may be those of a salt).

Compound | melting point [°C]
CCCCCCCCCCCCCCN(C)c1cc(OCC)c(N)cc1C(=O)O | 80 to 81
COc1ccc(CCCCNC(=O)CCl)cc1 | 99 to 100
COc1cccc2c1nc(C(F)F)n2-c1nc(N2CCOCC2)nc(N2CCC(NS(=O)(=O)C(F)(F)F)CC2)n1 | 282 to 285
O=C(Nc1ccc(C(F)(F)F)cc1)C(=O)N1CCC(Cc2ccc(F)cc2)CC1 | 109 to 111
CCN(CC)C(=O)OCC1CN(C(=O)c2cc(OC)c(OC)c(OC)c2)CCN1C(=O)c1cc(OC)c(OC)c(OC)c1 (stereo unspecified) | 95.1
CC(C)(C)n1ncc(N)c(Cl)c1=O | 194 to 198
CN(C)C1CCc2[nH]c3c(CO)cccc3c2C1 (stereo unspecified) | 227 to 230
COC(=O)C1CCCN(C(=O)OC(C)(C)C)C1 (stereo unspecified) | 47.5 to 48.5
CCOC(=O)N1CCN(C(=S)Cl)CC1 | 107 to 111
CCSc1c(C=NOCc2ccccc2)c(=O)n(C)c(=O)n1C | 76
O=C1CCC(N2Cc3cc(CNC(=S)Nc4ccc(SC(F)(F)F)cc4)ccc3C2=O)C(=O)N1 (stereo unspecified) | 229 to 231
CCCn1c(SC)nc2ccsc2c1=O | 142 to 144
S=C(Cc1ccc(Oc2ccc(I)cc2)cc1)N1CCOCC1 | 123 to 127
CSc1nc(N)c(N)c(N)n1 | 180 to 182
O=C1NCC2=C1CN=C(c1ccccc1Cl)c1cc(Cl)ccc12 | 243 to 244
COc1ccc(C(=O)c2ccc(OCCBr)cc2)cc1 | 112 to 113
O=S1CCN(c2nc3c(-c4nc(C5CC5)no4)ncn3c3ccccc23)CC1 | 293 to 294
CCc1ccccc1-c1nc(-c2cccc(OC)c2)n[nH]1 | 72 to 75
COc1ccc(C(=O)Nc2ccccc2)cc1NCc1ccc(N(C)C)cc1 | 195 to 197
Oc1cc(Br)cc(-c2ccc3nonc3c2)c1 | 179 to 181
Cc1cccc2c1-c1ccccc1C2CO (stereo unspecified) | 120 to 122
CCOC(=O)c1cnc2cc(I)ccc2n1 | 160 to 162
OCc1cn(-c2c(Cl)cc(C(F)(F)F)cc2Cl)nn1 | 123 to 125
CN(C(=O)COc1nnc(-c2ccco2)s1)c1ccccc1 | 94

Compound | melting point [°C]
N#CCCCCCC#Cc1nc(N)c2ncn(C3OC(CO)C(O)C3O)c2n1 (stereo unspecified) | 99 to 101
CCC(=O)c1cccc(Oc2nc(OC)cc(OC)n2)c1C(=O)OC | 120 to 122
COCCN1CCC(O)(c2cc(F)cc(F)c2)C1 (single isomer, unassigned; (-)) | 130 to 131
COc1ccc2sc3cc(-c4nnn[nH]4)ccc3c(=O)c2c1 | > 350
Nc1ccc2c(c1)S(=O)(=O)N(CCCCN1CCN(c3ncccn3)CC1)C2=O | 150 to 151
CCCc1nc(CO)c(C(=O)OCC)n1Cc1ccc(-c2ccccc2-c2nnnn2C(c2ccccc2)(c2ccccc2)c2ccccc2)cc1 | 135 to 138
O=C(O)c1ccc(C(=O)NCCc2ccccc2)cc1 | 237 to 238
O=c1[nH]c2ccc(C(O)CN3CCC(O)(c4ccccc4)CC3)cc2o1 (stereo unspecified) | 175 to 177
N#CC1=C(Nc2ccccc2N)CSC1 | 163
OC(CN1CCN(C(c2ccccc2)c2ccccc2)CC1)c1ccc(OCc2ccccc2)cc1 (stereo unspecified) | 129
CCCC[C@H](NC(=O)[C@H](CC(C)C)NC(=O)c1ccc(C)cc1)C(=O)CSCc1ccco1 | 122 to 123
FC(F)(F)c1cccc(-c2[nH]c(C3CCNCC3)cc2-c2ccncc2)c1 | 106 to 112
CCCCCNc1nc(C)c(C(=O)c2ccc(N)c([N+](=O)[O-])c2)s1 | 165 to 169
CC(C)(C)c1ccc(CCC2CO2)cc1NC(=O)CC1c2ccccc2Oc2ccccc21 (stereo unspecified) | 156 to 157
COc1c(C=C[N+](=O)[O-])cc2c(c1OC)CCC2 | 104
COc1ccc(Oc2ccc(OCc3ccccc3)cc2)c([N+](=O)[O-])c1 | 88 to 89.5
CCCCCCCCCCOc1cnc(-c2ccccc2C#CCC(C)O)nc1 (single isomer, unassigned; (-)) | 71 to 72
Cn1c(-c2ccccc2Sc2nc3ccccc3[nH]2)nc2ccccc21 | 246 to 247
CCN(CC)Cc1cnc(-c2ncn3c2CN(C)C(=O)c2cc(F)ccc2-3)o1 | 182 to 184
CS(=O)(=O)OCCCC(c1ccccc1)c1ccccc1 | 85 to 88
CC(=O)N(c1ccccc1)c1ccccc1-c1ccc(I)cc1 | 135 to 136
CC(C)n1c2c(c(-c3ccccc3)nc1=O)CCCCCCCCCC2 | 173 to 176
CNC(=O)Nc1snc(S(C)(=O)=O)c1C#N | 275
CCOC(=O)c1c(C(F)F)nc(C(F)(F)F)c(C(=O)OCC)c1C1CC1 | 30 to 32

Compound | melting point [°C]
CCCCCCCCCCCCCCCCCCOCC(O)Cn1ccc(N)nc1=O (stereo unspecified) | 153 to 154
CCOC(=O)c1nc(N)sc1-c1nc2cc(C)ccn2c1C | 226 to 228
CC1OC(n2cc(F)c(NC(=O)OC3CCCCC3)nc2=O)C(O)C1O (stereo unspecified) | 134 to 136
CNC(=O)c1cc(Cl)cc(C)c1NC(=O)c1cc(Br)nn1-c1ncccc1Cl | 162 to 164
CCCc1nncn1-c1ccc(O)cc1 | 176
CCS(=O)(=O)Nc1ccc(F)cc1Br | 79 to 81
CCCc1c(OCC(O)CSc2ccc(C(=O)CCC(=O)O)cc2F)ccc(C(C)=O)c1O (stereo unspecified) | 106 to 109
COc1cc(Nc2c(NC(C)C(C)(C)C)c(=O)c2=O)c2ncccc2c1 (stereo unspecified) | 243 to 245
Cc1nnc2n1-c1ccc(Cl)cc1C(c1ccccc1)=CC2 | 235
Cc1noc(C)c1C(=O)Nc1ccc(-n2nc(C(F)(F)F)cc2C(F)(F)F)c(Cl)c1 | 64 to 65
CN(N)c1cnn(-c2ccccc2)c(=O)c1Cl | 128 to 130
Cc1nn(-c2ccc(C(F)(F)F)cn2)cc1C=O | 226 to 227
O=C(O)c1cccnc1N1CCN(CCOCCO)CC1 | 172 to 174
NC(=O)N1c2ccccc2CC(=NO)c2ccccc21 | 230 to 232
Cc1cncn1-c1cc(C(=O)O)cc(C(F)(F)F)c1 | 243 to 245
CC(C)Cc1oc(-c2ccc(F)cc2)nc1CC(=O)O | 125 to 126
COCCCOc1cc(CBr)ccc1OC | 50 to 51
Cc1cccc2c(=O)[nH]c(N3CCN(C)CC3)cc12 | 186 to 188
CCNC(=O)Nc1cnc2ccc(-c3ccc(N)c(OC)c3)nc2n1 | > 310
O=C(Nc1ccc([N+](=O)[O-])cc1)N1CC=CCC1 | 169 to 170
CC(C)CN1C(=O)C(C)(C)C(=O)Nc2ccc(C#N)cc21 | 219 to 220
CCOC(=O)c1ccc(/C=C(\C)C=O)c(OC)c1 | 59 to 61

Results, then the compound that gave them:

melting point [°C] | Compound
269 to 271 | O=C1NC(=O)C2(N1)C(=O)N(Cc1ccc(Cl)c(Cl)c1)c1ccccc12 (stereo unspecified)
188 to 190 | CCc1cccc(NS(=O)(=O)c2ccc(N3CCNC3=O)cc2)c1
120 | CC(C)(C)NCC(O)c1ccc(OCc2ccccc2)c(C(N)=O)c1 (stereo unspecified)
196 to 197 | CCOC(=O)C1=C(C)NC(C)=C(C(=O)OC)C1c1cccc2ccccc12 (stereo unspecified)
195 to 197 | CCOC(=O)C1Cc2c([nH]c3ccccc23)CN1C(=S)SCc1ccc(Cl)cc1 (stereo unspecified)
> 260 | Cc1cc(C)c2nc(NCCCN3CCCCC3)n(Cc3nc(C)ccc3O)c2c1
140 | Cc1cc(-n2ccnc2)c2cccc(OCc3c(Cl)ccc(S(=O)(=O)N4CCC[C@H]4C(=O)NCCO)c3Cl)c2n1
174 to 175 | COc1ccc(C(=O)Nc2ccc(N3CCCC3)cc2C(C)=O)cc1
75 to 78 | O=C(CBr)c1ccc(Cl)cc1OCc1ccccc1
128 | O=C(c1ccc(Br)s1)N(Cc1cccc(O)c1)C1CC1
130 to 135 | CN(C)CCCN=C1CC(c2ccc(C(F)(F)F)cc2)Cc2c1c(=O)c1cc(Cl)ccc1n2O (stereo unspecified)
184 to 187 | O=C(O)CCc1cn(Cc2ccc(F)cc2)c2ccc(C(=O)CC(=O)C(=O)O)cc2c1=O
126 | CN(C)C(=O)c1ccc(F)c2c1CC(N(CCCc1c[nH]c3ccc(F)cc13)C1CCC1)CO2 (stereo unspecified)
196 to 201 | Cc1c(NC(=O)c2cccnc2NCc2ccc(=O)[nH]c2)cccc1C(F)(F)F
340 to 343 | Cc1cc(-c2ccc(NS(C)(=O)=O)cc2)cc2ccc(=O)[nH]c12
126 to 128 | COc1ccc(CS(=O)(=O)c2cc3ccc(O)cc3oc2=O)cc1[N+](=O)[O-]

melting point [°C] | Compound
145 | CN(C)C=CC(=O)c1ccc(OC[C@H]2CO[C@](Cn3ccnc3)(c3ccc(Cl)cc3Cl)O2)cc1 (relative stereo)
155 | CN1CCCc2cc(OC(=O)Nc3ccc(Br)cc3)ccc21
196 to 198 | COC(=O)c1cc2c(cc(C=O)c3ccccc32)s1
179 to 180 | CCCc1cc(Cl)c2oc(Cc3ccc(OCC(=O)O)cc3)c(C)c2c1O
254 to 257 | CS(=O)(=O)c1ccc(-c2[nH]c3ccc(Cl)cc3c2-c2cccc(Cl)c2)cc1
201 to 202 | CCOC(=O)c1[nH]c2cc(Cl)c(Cl)cc2c1-c1ccccc1
147 to 148 | Cc1oc(-c2ccccc2)nc1COc1ccc(COc2ncccc2CC(=O)O)cn1
178 to 181 | CN1Cc2ccccc2C(=O)c2c(CC(=O)O)cccc21
133 to 134 | CCC(=O)Nc1cc(C2=NCCO2)ccc1OCCCCCc1cc(C)no1
128 to 132 | CC(C)(C)NCC(COc1cccc2c1CC(=O)N2)OC(=O)C=Cc1ccccc1 (stereo unspecified)
158 | CCOC(=O)c1nc2cccnc2n(-c2ccc(Cl)cc2)c1=O
176 to 178 | COc1ccc2c(c1)OC(CNCCCOc1cc3ccccc3oc1=O)CO2 (stereo unspecified)
152 to 153 | COc1ccc(S(=O)(=O)N(CCO)c2cccc(F)c2/C=C/c2ccncc2)cc1
132 to 133 | Cc1nnc(-c2ccc3occ(-c4ccc(OCCS(C)(=O)=O)cc4)c3c2)o1
200 to 201 | O=C(NC(=O)c1ccc2ncccc2c1)NC1CCN(Cc2ccc3cc(F)ccc3c2)CC1
